{"source": "paper PMC6479731", "about": "(ACS Synthetic Biology, 2019)", "tested_on": "Cn Mdh2 CT4–1", "settings": "read-out: Km,MeOH; 1 mM NAD+, 100 mM glycine-NaOH pH 9.5, 50 mM MgSO4, 37 °C, no activator protein"}
{"smiles": "CO", "note": "[methanol]", "values": [{"measurement": "Km", "value": "88.8 ± 7.8", "unit": "mM"}]}
